Values quoted from earlier work as cited in US20100209480A1, “GALENICAL FORMULATIONS OF ORGANIC COMPOUNDS” (priority 2007, published 2010).

Details: drug substance

Hygroscopicity: highly hygroscopic
Compound: COCCCOc1cc(C[C@@H](C[C@H](N)[C@@H](O)C[C@H](C(=O)NCC(C)(C)C(N)=O)C(C)C)C(C)C)ccc1OC [Aliskiren, 2(S),4(S),5(S),7(S)—N-(3-amino-2,2-dimethyl-3-oxopropyl)-2,7-di(1-methylethyl)-4-hydroxy-5-amino-8-[4-methoxy-3-(3-methoxy-propoxy)phenyl]-octanamide]
